Test results published in patent US10632115B2, “Use of a statin compound as local drug for treating obesity, diabetes, hypertension and hyperlipemia” (Peking University Third Hospital, priority 2015, dated 2020).

Key:
diabetic rats = assay: Fasting blood glucose assay in diabetic rats after single intraosseous statin injection; type: in vivo, rat; conditions: 1-14 weeks after single intraosseous injection (fluvastatin 8 mg, atorvastatin 4 mg, rosuvastatin 2 mg); tail blood, glucose meter
Description: 36 three-month-old male SD rats (250-300 g) rats were accommodated for one week, in accordance with standard procedures of diabetic rat model, intraperitoneal injection of streptozotocin (STZ, Sigma Company) 40 mg/kg, the next day administration of high fat diet (purchased from Institute of Zoology, recipe: 68.5% base stock, lard 20%, 10% sucrose, 1% cholesterol and 0.5% porcine bile salts).
Two months later, all the rats were abnormally elevated blood glucose (above 19.5 mmol/L), indicate a successful model (Zhouguang Xing animal models of human disease replication methodology Shanghai Science and Technology Literature Press, 2008: 167-168 SHI Xin animal models of human disease People's Health Press, 2008: 301-305). […] Bone wax pinhole puncture closure avoiding leakage and sutured wounds.
After the rats were fasted 6 h, take one drop of blood (about 50 ul) from the rat tail and placed in the blood sugar test paper (Roche), 2 seconds later, fasting blood glucose were determinated by Roche glucose meter (ACCU-CHEK Performa). […]

type 2 diabetes patients = conditions: oral atorvastatin 10 mg/d for 16 weeks added to conventional antidiabetic; vs control group; cited from earlier work
[1] = oral atorvastatin 10 mg/day, simvastatin 40 mg/day; cited from earlier work

In the case of `CC(C)c1c(C(=O)Nc2ccccc2)c(-c2ccccc2)c(-c2ccc(F)cc2)n1CC[C@@H](O)C[C@@H](O)CC(=O)O` [atorvastatin], the fasting blood glucose (diabetic rats) is listed as “significantly reduced”, the blood glucose (type 2 diabetes patients) is listed as “much better than the control group” and the effect on diabetes [1] is listed as “no effect”.

For `CC(C)c1nc(N(C)S(C)(=O)=O)nc(-c2ccc(F)cc2)c1/C=C/[C@@H](O)C[C@@H](O)CC(=O)O` [rosuvastatin], the fasting blood glucose (diabetic rats) was “significantly reduced”.
